Assays:
Novikoff hepatoma = Novikoff hepatoma tumor model in rats, IV infusion, tumor volume; format: in vivo, rat; conditions: for inhibition of tumor growth if the tumor was relatively small at the beginning of the treatment: Novikoff hepatoma, IV infusion, in some cases apoptosis; for inhibition of the tumor growth (tumor size): subcutaneous Novikoff hepatoma, continuous IV infusion over 10 days, 1.25 mM aminooxyacetate or 10 μM CHBA, beginning with a tumor volume of 1 ml, vs NaCl control
Description: As a tumor model, immuno-competent adult rats were used, treated with IV infusion. This animal model provides better correlation to human therapy than immuno-incompetent nude mice, which are commonly used. The animal tests were approved according to paragraph 8 section 1 of the German Animal Protection Act, and were performed according to the recommendations of the Tieraerztliche Vereinigung fuer Tierschutz e.V. (Veterinarians' Association for Animal Protection). Male inbreed rats (Sprague-Dawley, 200-250 g, Charles River, Sulzfeld, Germany) were used as tumor recipients.
Novikoff hepatoma was used as the source of tumor cells. Of several tested, experimentally produced tumors, the Novikoff hepatoma best all requirements of a solid tumor having all signs of malignity and similarity to hepatocellular carcinoma in humans. The Novikoff hepatoma was induced by Alex B. Novikoff in […] by feeding a diet containing 0.06% […] (butter yellow) to female Sprague-Dawley rats (Novikoff B., A transplantable rat liver tumour induced by 4-dimethylaminoazobenzene. Cancer Res. 1951; 17:1010). […] The chromatin structure in the tumor cells appears in an irregular form, and the nuclei are indented, round and oval.
The Deutsches Krebsforschungsinstitut in Heidelberg provided the Novikoff hepatoma cells. The cells were received in Hank's solution and intraperitoneally injected in a sterile manner into a Sprague-Dawley rat for passaging. Within a week, approximately 50 ml hemorrhagic ascites were generated and removed in a sterile manner. The pellet generated after centrifugation at 1,300 rpm for five minutes in a Falcon tube was prepped for further purification of cells from other ascites components by washing with 50 ml Dulbecco's MEM (Gibco BRL, Eggenstein) and centrifugation at 1,300 rpm for five minutes. The supernatant was decanted, and the pellet was mixed in Dulbecco's+40% fetal calf serum (FCS). 0.7 ml cell suspension and 0.7 freezing medium each were filled in Nunc tubes, airtight sealed, pre-cooled for five minutes at −20° C. and for 12 hours at −80° C., and then deep-frozen in liquid nitrogen. The freezing medium was 40% Dulbecco's, 40% FCS and 20% DMSO.
The cells were prepared for the application as follows: after thawing, the pellet was reacted in a Falcon tube with 50 ml of a medium (Dulbecco's+40% FCS), pre-heated to 37° C., and centrifuged for five minutes at 1,300 rpm. […]
After centrifugation and decantation of the supernatant, the pellet was suspended in HBSS, 100 microlitres were sampled with an Eppendorf pipette and counted for determining the number of vital cells after vital staining with erythrosine (BioMed, Munich, Germany) in a Neubauer counting chamber. […]
The tumor size was determined by CT-supported volumetry. […]

Novikoff hepatoma cells = test: Dose-dependence of proliferation inhibition, cell density of cultivated Novikoff hepatoma cells; format: cell-based, rat; conditions: four days of cultivation, at higher dosage levels
Description: For the experiments, Novikoff hepatoma cells were cultivated in a conventional manner. The control substance contained a solvent without an active ingredient. The other groups received different doses of a respective test compound. After four days of cultivation with or without active ingredient, the cell density was determined using standard methods. In FIG. 2 is shown the dose-dependence of obtained cell densities for aminooxyacetate, in FIG. 3 for CHBA, in FIG. 4 for glycerate-2,3-bisphosphate, and in FIG. 5 for fructose-1,6-bisphosphate.

M2-PK = M2-PK (Homo sapiens, UniProt P14618); conditions: known from Eigenbrodt et al. 1992; cited from earlier work
Sequence of M2-PK (P14618 whole entry, species assumed): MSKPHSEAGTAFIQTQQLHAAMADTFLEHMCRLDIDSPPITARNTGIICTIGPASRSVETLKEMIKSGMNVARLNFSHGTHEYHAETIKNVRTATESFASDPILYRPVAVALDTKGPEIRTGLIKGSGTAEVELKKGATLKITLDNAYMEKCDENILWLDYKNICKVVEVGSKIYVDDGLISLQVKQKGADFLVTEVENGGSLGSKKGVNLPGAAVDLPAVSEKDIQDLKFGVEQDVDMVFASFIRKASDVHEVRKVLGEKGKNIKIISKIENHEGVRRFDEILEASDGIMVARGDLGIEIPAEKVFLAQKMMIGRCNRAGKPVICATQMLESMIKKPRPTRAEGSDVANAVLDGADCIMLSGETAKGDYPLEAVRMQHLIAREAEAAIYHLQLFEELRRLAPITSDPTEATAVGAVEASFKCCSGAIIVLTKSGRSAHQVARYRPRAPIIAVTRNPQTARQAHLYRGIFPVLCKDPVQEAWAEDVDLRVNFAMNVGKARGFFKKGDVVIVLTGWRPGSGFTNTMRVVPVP

[1] = biological target: T1, glutamate pyruvate transaminase (Homo sapiens, UniProt P24298); conditions: known from Eigenbrodt et al. 1994; cited from earlier work
T1 sequence (P24298 2-496 limits assumed): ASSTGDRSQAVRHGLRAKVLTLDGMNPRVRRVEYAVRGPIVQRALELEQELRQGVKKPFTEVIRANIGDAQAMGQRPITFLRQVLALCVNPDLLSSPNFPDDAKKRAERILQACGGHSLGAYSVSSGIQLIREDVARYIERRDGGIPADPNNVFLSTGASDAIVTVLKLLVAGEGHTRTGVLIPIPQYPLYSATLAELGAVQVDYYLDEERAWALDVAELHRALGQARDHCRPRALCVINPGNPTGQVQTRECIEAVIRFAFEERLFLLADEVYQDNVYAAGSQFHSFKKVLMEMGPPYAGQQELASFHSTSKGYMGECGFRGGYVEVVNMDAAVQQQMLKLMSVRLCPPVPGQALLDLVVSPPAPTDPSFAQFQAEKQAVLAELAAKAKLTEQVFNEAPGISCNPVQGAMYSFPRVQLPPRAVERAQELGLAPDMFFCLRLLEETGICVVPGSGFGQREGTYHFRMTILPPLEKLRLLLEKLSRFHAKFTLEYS

cells = conditions: known from Eigenbrodt et al. 1994; cited from earlier work

## CC(O)=C(C#N)C(=O)Nc1ccc(C(F)(F)F)cc1 [CHBA, 2-cyano-3-hydroxy-but-2-(4-trifluoromethyl-phenyl)-amide]
Novikoff hepatoma
  inhibition of tumor growth if the tumor was relatively small at the beginning of the treatment: practically complete inhibition
  inhibition of the tumor growth (tumor size): substantial inhibition
Novikoff hepatoma cells
  inhibition of cell density (proliferation): practically complete inhibition

## O=C(O)C(COP(=O)(O)O)OP(=O)(O)O (stereo not drawn) [glycerate-2,3-bisphosphate]
Novikoff hepatoma cells
  inhibition of cell density (proliferation): practically complete inhibition

## CC(C)C[C@H](N)C(=O)O [leucine]
M2-PK
  inhibition of M2-PK: inhibit

## O=C(COP(=O)(O)O)[C@@H](O)[C@H](O)[C@H](O)COP(=O)(O)O [fructose-1,6-bisphosphate]
Novikoff hepatoma cells
  inhibition of cell density (proliferation): practically complete inhibition
M2-PK
  displacement of the dimeric form to the highly active tetrameric form of M2-PK: leads to a displacement of the dimeric form to the highly active tetrameric form

## NOCC(=O)O [aminooxyacetate]
Novikoff hepatoma
  inhibition of tumor growth if the tumor was relatively small at the beginning of the treatment: practically complete inhibition
  inhibition of the tumor growth (tumor size): substantial inhibition
Novikoff hepatoma cells
  inhibition of cell density (proliferation): practically complete inhibition
[1]
  inhibition of glutamate pyruvate transaminase: inhibit
cells
  inhibition of the proliferation of cells: can inhibit

## N[C@@H]1CON=C1O [cycloserine, reference compound]
[1]
  inhibition of glutamate pyruvate transaminase: inhibit
cells
  inhibition of the proliferation of cells: can inhibit

## C[C@H](N)C(=O)O [alanine]
M2-PK
  inhibition of M2-PK: inhibit

Source: patent US20090163591A1, “USE OF SUGAR PHOSPHATES, SUGAR PHOSPHATE ANALOGS, AMINO ACIDS AND/OR AMINO ACID ANALOGS FOR MODULATING THE GLUCOLYSIS-ENZYME COMPLEX, THE MALATE ASPARATE SHUTTLE AND/OR THE TRANSAMINASES” (priority 2001, published 2009)
